Measured values from article PMC7726444 (Frontiers in Pharmacology, 2020).

Molecular target: T1, MAO-A (Homo sapiens, UniProt P21397)
T1 construct: purchased BioVision, Inc, Milpitas, CA
T1 sequence (P21397 1-527): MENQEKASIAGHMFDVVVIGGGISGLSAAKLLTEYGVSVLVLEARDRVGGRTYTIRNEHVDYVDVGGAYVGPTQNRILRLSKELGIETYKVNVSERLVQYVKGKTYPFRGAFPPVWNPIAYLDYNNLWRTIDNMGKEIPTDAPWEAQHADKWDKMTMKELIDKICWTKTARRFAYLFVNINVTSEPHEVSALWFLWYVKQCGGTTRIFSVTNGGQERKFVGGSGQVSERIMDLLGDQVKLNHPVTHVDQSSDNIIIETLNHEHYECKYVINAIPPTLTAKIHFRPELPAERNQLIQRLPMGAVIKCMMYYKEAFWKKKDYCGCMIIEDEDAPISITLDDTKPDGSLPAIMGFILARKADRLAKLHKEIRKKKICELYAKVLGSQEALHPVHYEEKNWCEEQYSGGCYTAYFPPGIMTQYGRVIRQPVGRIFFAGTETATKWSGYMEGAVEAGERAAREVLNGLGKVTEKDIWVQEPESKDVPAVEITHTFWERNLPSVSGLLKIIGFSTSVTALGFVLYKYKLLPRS
Experiment: MAO-A enzymatic activity assay (MAO-A Inhibitor Screening Kit, fluorimetric detection of H2O2)
Assay type: biochemical
Conditions: 25°C, 15 min kinetic read; mean (95% confidence interval), three experiments
Experimental: The experiments were conducted following the manufacturer’s (BioVision, Inc, Milpitas, CA) instructions and were based on the fluorimetric detection of H2O2, a byproduct of the enzymatic activity of MAO-A, by measuring the fluorescence (Excitation/Emission at 535/587 nm) kinetically at 25°C for 15 min using a Tecan Spark plate reader (Tecan Group Ltd, Männedorf, Switzerland).
Relative inhibition of MAO-A was calculated as a percentage using the following Eq. 2: %Relative inhibition=((Slope of EC−Slope of S)/Slope of EC)×100 (2)
The slopes for all samples, either containing Enzyme Control (EC) or test substance (S), were calculated by dividing the net change in relative fluorescence units (ΔRFU; RFU2–RFU1) by the time interval (Δt; t2 –t1).

IC50 [µM]	SMILES
18	COc1ccc2nc([S@@+]([O-])Cc3ncc(C)c(OC)c3C)[nH]c2c1 [Esomeprazole]
137	Cc1c(OCC(F)(F)F)ccnc1C[S@@+]([O-])c1nc2ccccc2[nH]1 [(R)-lansoprazole]
29.2	COc1ccc2[nH]c([S+]([O-])Cc3ncc(C)c(OC)c3C)nc2n1 (stereo not drawn) [Tenatoprazole]
251	Cc1c(OCC(F)(F)F)ccnc1C[S+]([O-])c1nc2ccccc2[nH]1 (stereo not drawn) [Lansoprazole]
12.8	COCCCOc1ccnc(C[S+]([O-])c2nc3ccccc3[nH]2)c1C (stereo not drawn) [Rabeprazole]
462	COc1ccnc(C[S+]([O-])c2nc3ccc(OC(F)F)cc3[nH]2)c1OC (stereo not drawn) [Pantoprazole]
29	COc1ccnc(C[S+]([O-])c2nc3cc(-n4cccc4)ccc3[nH]2)c1C (stereo not drawn) [Ilaprazole]

Molecular target: T2, doubly truncated TPH1 (ΔNH102-ΔCOOH402) (Homo sapiens, UniProt P17752)
T2 construct: The ΔNH102-ΔCOOH402 human TPH1 gene was cloned; six-His (C); made in house
Experiment: Tryptophan hydroxylase enzymatic activity assay (HPLC quantification of 5-OH-Trp), doubly truncated TPH1
Assay type: biochemical
Conditions: 100 µM compound, preliminary activity assay

T2 sequence (P17752 102-402, stated change not applied): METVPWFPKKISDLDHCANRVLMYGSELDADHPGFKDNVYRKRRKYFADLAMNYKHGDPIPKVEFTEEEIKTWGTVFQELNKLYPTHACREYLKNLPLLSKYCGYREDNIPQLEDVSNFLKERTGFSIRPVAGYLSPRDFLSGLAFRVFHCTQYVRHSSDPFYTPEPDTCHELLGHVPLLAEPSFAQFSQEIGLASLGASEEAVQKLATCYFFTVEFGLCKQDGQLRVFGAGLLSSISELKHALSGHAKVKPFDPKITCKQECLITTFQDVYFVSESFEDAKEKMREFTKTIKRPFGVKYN

reduction of TPH1 activity	SMILES
more than 50%	CSc1nc2cc(Cl)c(Oc3cccc(Cl)c3Cl)cc2[nH]1 [triclabendazole]
more than 50%	COC(=O)C1=C(C#N)NC(C)=C(C(=O)OC(C)C)C1c1cccc([N+](=O)[O-])c1 (stereo not drawn) [nilvadipine]

SMILES	reduction of TPH1 activity
CC1CCc2cc(F)cc3c(=O)c(C(=O)O)cn1c23 (stereo not drawn) [flumequine]	more than 50%

Same assay, conditions: doubly truncated TPH1; 20 µM L-Trp, 200 µM BH4, 37°C; mean (95% confidence interval), three experiments in duplicate

IC50 [µM]	SMILES
~100	CSc1nc2cc(Cl)c(Oc3cccc(Cl)c3Cl)cc2[nH]1 [triclabendazole]
3.76	COc1ccc2nc([S@@+]([O-])Cc3ncc(C)c(OC)c3C)[nH]c2c1 [Esomeprazole]
18.8	Cc1c(OCC(F)(F)F)ccnc1C[S@@+]([O-])c1nc2ccccc2[nH]1 [(R)-lansoprazole]
2.16	COc1ccc2[nH]c([S+]([O-])Cc3ncc(C)c(OC)c3C)nc2n1 (stereo not drawn) [Tenatoprazole]
~100	COC(=O)C1=C(C#N)NC(C)=C(C(=O)OC(C)C)C1c1cccc([N+](=O)[O-])c1 (stereo not drawn) [nilvadipine]
24.6	Cc1c(OCC(F)(F)F)ccnc1C[S+]([O-])c1nc2ccccc2[nH]1 (stereo not drawn) [Lansoprazole]
7.57	COCCCOc1ccnc(C[S+]([O-])c2nc3ccccc3[nH]2)c1C (stereo not drawn) [Rabeprazole]
21.7	COc1ccnc(C[S+]([O-])c2nc3ccc(OC(F)F)cc3[nH]2)c1OC (stereo not drawn) [Pantoprazole]

SMILES	IC50 [µM]
CC1CCc2cc(F)cc3c(=O)c(C(=O)O)cn1c23 (stereo not drawn) [flumequine]	~100

Same assay, conditions: relative to omeprazole TPH1 IC50

fold less potent inhibitor of TPH1 than omeprazole [fold]	SMILES
6	Cc1c(OCC(F)(F)F)ccnc1C[S@@+]([O-])c1nc2ccccc2[nH]1 [(R)-lansoprazole]
6	Cc1c(OCC(F)(F)F)ccnc1C[S+]([O-])c1nc2ccccc2[nH]1 (stereo not drawn) [Lansoprazole]
6	COc1ccnc(C[S+]([O-])c2nc3ccc(OC(F)F)cc3[nH]2)c1OC (stereo not drawn) [Pantoprazole]

Molecular target: T1, MAO-A
Experiment: not given
Set-up: method as in Petzer et al., 2013
Conditions: ref Petzer et al., 2013; cited from earlier work

SMILES	IC50 [µM]
COc1ccc2nc([S@@+]([O-])Cc3ncc(C)c(OC)c3C)[nH]c2c1 [Esomeprazole]	23

Molecular target: T3, WT full-length TPH2 (Homo sapiens, UniProt Q8IWU9)
T3 construct: both the doubly truncated TPH1 protein and WT full-length TPH2 protein; made in house
T3 sequence (Q8IWU9 1-490): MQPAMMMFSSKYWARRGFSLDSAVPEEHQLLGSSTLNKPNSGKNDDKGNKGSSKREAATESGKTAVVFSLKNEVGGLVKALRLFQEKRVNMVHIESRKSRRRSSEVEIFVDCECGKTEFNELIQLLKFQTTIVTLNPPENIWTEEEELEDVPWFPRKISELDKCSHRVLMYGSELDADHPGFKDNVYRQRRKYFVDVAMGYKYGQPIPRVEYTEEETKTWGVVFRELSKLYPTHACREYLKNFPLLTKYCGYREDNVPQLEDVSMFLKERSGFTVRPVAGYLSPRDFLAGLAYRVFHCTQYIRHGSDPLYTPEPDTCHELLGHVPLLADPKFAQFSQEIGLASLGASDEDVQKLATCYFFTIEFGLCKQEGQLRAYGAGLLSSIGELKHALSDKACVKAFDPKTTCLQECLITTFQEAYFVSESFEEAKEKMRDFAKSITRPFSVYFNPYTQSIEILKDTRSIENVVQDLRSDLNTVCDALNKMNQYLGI
Experiment: Tryptophan hydroxylase enzymatic activity assay, WT full-length TPH2
Assay type: biochemical
Conditions: mean (95% confidence interval), three experiments in duplicate

IC50 [µM]	SMILES
2.15	COc1ccc2nc([S@@+]([O-])Cc3ncc(C)c(OC)c3C)[nH]c2c1 [Esomeprazole]
3.36	Cc1c(OCC(F)(F)F)ccnc1C[S@@+]([O-])c1nc2ccccc2[nH]1 [(R)-lansoprazole]
4.9	COc1ccc2[nH]c([S+]([O-])Cc3ncc(C)c(OC)c3C)nc2n1 (stereo not drawn) [Tenatoprazole]
5.21	Cc1c(OCC(F)(F)F)ccnc1C[S+]([O-])c1nc2ccccc2[nH]1 (stereo not drawn) [Lansoprazole]
2.13	COCCCOc1ccnc(C[S+]([O-])c2nc3ccccc3[nH]2)c1C (stereo not drawn) [Rabeprazole]
8.2	COc1ccnc(C[S+]([O-])c2nc3ccc(OC(F)F)cc3[nH]2)c1OC (stereo not drawn) [Pantoprazole]
0.53	COc1ccnc(C[S+]([O-])c2nc3cc(-n4cccc4)ccc3[nH]2)c1C (stereo not drawn) [Ilaprazole]
